Results taken from patent US8450300B2 (priority 2009, dated 2013).
Like-named read-outs stand apart in the source and are kept apart here.

What was measured:
[1] = tested on: 217 S. aureus Canadian isolates; format: cell-based; settings: 217 Canadian isolates
Procedure: CLSI broth microdilution (BMD) and anaerobic agar dilution (AD) methods were performed. Modifications of standard test methods included adding 10% human serum, adjusting the medium pH to 5, 6, and 8, and synergy was assessed by the checkerboard method.

[2] = tested on: methicillin-resistant S. aureus (MRSA) strain USA 300; experiment: Hollow fiber pharmacodynamic model, resistance potential; format: cell-based
Procedure: A hollow fiber model was used to evaluate CEM-102 resistance potential in methicillin-resistant S. aureus (MRSA) strain USA 300 (Network of Antimicrobial Resistance in Staphylococcus aureus (NARSA), Chantilly, Va.). USA 300 is a highly virulent strain of MRSA and is the most common community-associated MRSA isolate in the USA. MIC values were determined in accordance with Clinical and Laboratory Standards Institute (CLSI).
The hollow fiber model comprised a two-compartment hollow fiber model (Louie et al. Antimicrob Agents Chemother 52:2486-2496(2008)) consisting of a volume of 15 mL in the central compartment, with multiple ports for the removal of broth, delivery of antibiotics, and collection of bacterial and antimicrobial samples. […] All experiments were performed in duplicate.
Hollow fibers contain 15 ml of media was prepared and inoculated with 10^6 colony forming units (CFU)/mL USA 300 bacteria. One of three different dosing regimens of […] was then applied to the fibers: (1) […] q12h; (2) 1200 mg/ml×2, followed by […], q12h; (3) 1500 mg/ml×2, followed by […], q12h.

[3] = Dose escalation study, single/multiple dose and loading dose regimens: pharmacokinetics; format: in vivo, human; settings: for concentration at 7 days: after 7 days of dosing; for concentration at 7 days / concentration at 24 h: read-out: mean trough plasma concentration
Procedure: The pharmacokinetics (PK), safety, and tolerability of single and multiple doses of CEM-102 (sodium fusidate) were evaluated in a single-center, Phase 1, double-blind, randomized, placebo-controlled, dose-escalating study in 32 healthy adult subjects enrolled in 4 dosage groups (550, 1100, 1650, and 2200 mg). In each cohort, six subjects were to receive CEM-102 and two were to receive placebo in a single dose (Period 1) and then multiple doses BID for a total of 11 doses over 5.5 days (Period 2). The two dosing periods were separated by a seven-day washout period between the single dose in Period 1 and the first dose in Period 2.
Dosing proceeded as planned for Cohorts 1 to 3; however, Cohort 4 received only the single dose of 2200 mg (Period 1), because dose-limiting gastrointestinal intolerance was observed after multiple doses of 1650 mg BID in Cohort 3. Period 2 for Cohort 4 evaluated an initial loading dose regimen, and a second loading dose regimen was evaluated in an additional cohort (Cohort 5) per a protocol amendment.
The protocol was amended for assessment of the safety, tolerability, and PK of front-loaded dose regimens comprised of a higher dose of CEM-102 on Day 1 followed by lower doses for the subsequent 6.5 days. All loading dose regimens employed multiple doses lower than the maximum tolerated dose (MTD) established in the first part of the study (1650 mg administered as multiple doses).
The loading dose regimens assessed were 1100 mg BID on Day 1 and 550 mg BID on the following 6.5 days in Period 2 of Cohort 4 and 1650 mg BID on Day 1 and 825 mg BID on the following 6.5 days in Cohort 5.

[4] = human, in vivo, 550 mg, Period 1 Day 1, single dose 550 mg
[5] = human, in vivo, 1100 mg BID loading dose then 550 mg BID
[6] = human, in vivo, 1100 mg, Period 1 Day 1, single dose 1100 mg
[7] = human, in vivo, 1650 mg BID loading dose then 825 mg BID
[8] = human, in vivo, 1650 mg, Period 1 Day 1, single dose 1650 mg
[9] = human, in vivo, 2200 mg, Period 1 Day 1, single dose 2200 mg

Q: What does the source list for `CC(=O)O[C@H]1C[C@@]2(C)[C@@H](C[C@@H](O)[C@H]3[C@@]4(C)CC[C@@H](O)[C@@H](C)[C@@H]4CC[C@@]32C)/C1=C(\CCC=C(C)C)C(=O)O` [CEM-102, Sodium fusidate]?
A: isolates with MICs of ≧2.0 μg/mL (classified as resistant) [1]: 6.5%; reduction of bacterial counts ([2]; 1200 mg×2 then 600 mg q12h): 2 logs; time until which resistance was suppressed ([2]; 1500 mg×2 then 600 mg q12h): > 72 h; AUC(0-12) accumulation ratio ([3]; Mean AUC(0-12) Day 6/Mean AUC(0-inf) Day 1, 550 mg): 2.61; AUC(0-12) accumulation ratio ([3]; Mean AUC(0-12) Day 6/Mean AUC(0-inf) Day 1, 1100 mg): 2.30; AUC(0-12) accumulation ratio ([3]; Mean AUC(0-12) Day 6/Mean AUC(0-inf) Day 1, 1650 mg): 1.83; Cmax accumulation ratio ([3]; Mean Cmax Day 6/Mean Cmax Day 1, 550 mg): 3.89; Cmax accumulation ratio ([3]; Mean Cmax Day 6/Mean Cmax Day 1, 1100 mg): 3.89; Cmax accumulation ratio ([3]; Mean Cmax Day 6/Mean Cmax Day 1, 1650 mg): 3.18; Kel, apparent first-order terminal elimination rate constant, mean ([3]; Period 1 Day 1, single dose 550 mg): 0.0564 h⁻¹; Kel, apparent first-order terminal elimination rate constant, mean ([3]; Period 1 Day 1, single dose 1100 mg): 0.0617 h⁻¹; Kel, apparent first-order terminal elimination rate constant, mean ([3]; Period 1 Day 1, single dose 1650 mg): 0.0498 h⁻¹; Kel, apparent first-order terminal elimination rate constant, mean ([3]; Period 1 Day 1, single dose 2200 mg): 0.0500 h⁻¹; Kel, mean ([3]; Period 2 Day 6, 550 mg BID): 0.0554 h⁻¹; Kel, mean ([3]; Period 2 Day 6, 1100 mg BID): 0.0404 h⁻¹; Kel, mean ([3]; Period 2 Day 6, 1650 mg BID): 0.0199 h⁻¹; Tmax ([3]; human, in vivo, 550 mg): 3 h; Cmax [3, 4]: 33.4 µg/mL; Vd/F [3, 4]: 28.4 L; AUC(0-t) ([3]; human, in vivo, 550 mg, Period 1 Day 1, single dose 550 mg, read-out: AUC(0-24), mean): 242 µg·h/mL; half-life ([3]; human, in vivo, 550 mg, Period 1 Day 1, single dose 550 mg, read-out: T1/2, harmonic mean (converted)): 12.3 h; Tmax ([3]; human, in vivo, 550 mg, Period 1 Day 1, single dose 550 mg, read-out: Tmax, median): 2 h; Vd/F ([3]; human, in vivo, 550 mg, Period 2 Day 6, 550 mg BID): 9.88 L; Cmax ([3]; human, in vivo, 550 mg, Period 2 Day 6, 550 mg BID, 11 doses): 130 µg/mL; AUC(0-t) ([3]; human, in vivo, 550 mg, Period 2 Day 6, 550 mg BID, read-out: AUC(0-12), mean): 1150 µg·h/mL; half-life ([3]; human, in vivo, 550 mg, Period 2 Day 6, 550 mg BID, read-out: T1/2, harmonic mean (converted)): 12.5 h; concentration at 7 days [3, 5]: ~105 µg/mL; concentration at 24 h [3, 5]: ~74 µg/mL; Cmax [3, 6]: 72.2 µg/mL; Vd/F [3, 6]: 16.9 L; AUC(0-t) ([3]; human, in vivo, 1100 mg, Period 1 Day 1, single dose 1100 mg, read-out: AUC(0-24), mean): 844 µg·h/mL; half-life ([3]; human, in vivo, 1100 mg, Period 1 Day 1, single dose 1100 mg, read-out: T1/2, harmonic mean (converted)): 11.2 h; Vd/F ([3]; human, in vivo, 1100 mg, Period 2 Day 6, 1100 mg BID): 12.7 L; Cmax ([3]; human, in vivo, 1100 mg, Period 2 Day 6, 1100 mg BID, 11 doses): 281 µg/mL; AUC(0-t) ([3]; human, in vivo, 1100 mg, Period 2 Day 6, 1100 mg BID, read-out: AUC(0-12), mean): 2530 µg·h/mL; half-life ([3]; human, in vivo, 1100 mg, Period 2 Day 6, 1100 mg BID, read-out: T1/2, harmonic mean (converted)): 17.1 h; Tmax ([3]; human, in vivo, 1650 mg): 4 h; concentration at 7 days [3, 7]: ~200 µg/mL; concentration at 24 h [3, 7]: ~150 µg/mL; Cmax [3, 8]: 102 µg/mL; Vd/F [3, 8]: 21.1 L; AUC(0-t) ([3]; human, in vivo, 1650 mg, Period 1 Day 1, single dose 1650 mg, read-out: AUC(0-24), mean): 1260 µg·h/mL; Vd/F ([3]; human, in vivo, 1650 mg, Period 2 Day 6, 1650 mg BID): 34.8 L; Cmax ([3]; human, in vivo, 1650 mg, Period 2 Day 6, 1650 mg BID, 11 doses): 324 µg/mL; AUC(0-t) ([3]; human, in vivo, 1650 mg, Period 2 Day 6, 1650 mg BID, read-out: AUC(0-12), mean): 3290 µg·h/mL; half-life ([3]; human, in vivo, 1650 mg, Period 2 Day 6, 1650 mg BID, read-out: T1/2, harmonic mean (converted)): 31.6 h; CL/F, mean ([3]; human, in vivo, 2200 mg): 0.924 L/h; half-life ([3]; human, in vivo, 2200 mg): 13.9 h; Cmax [3, 9]: 128 µg/mL; Vd/F [3, 9]: 19.2 L; AUC(0-t) ([3]; human, in vivo, 2200 mg, Period 1 Day 1, single dose 2200 mg, read-out: AUC(0-24), mean): 1690 µg·h/mL; Tmax ([3]; human, in vivo, 2200 mg, Period 1 Day 1, single dose 2200 mg, read-out: Tmax, median): 6 h; AUC(0-inf) ([3]; human, in vivo, Period 1 Day 1, single dose 550 mg): 441 µg·h/mL; AUC(0-inf) ([3]; human, in vivo, Period 1 Day 1, single dose 1100 mg): 1100 µg·h/mL; AUC(0-inf) ([3]; human, in vivo, Period 1 Day 1, single dose 1650 mg): 1800 µg·h/mL; AUC(0-inf) ([3]; human, in vivo, Period 1 Day 1, single dose 2200 mg): 2650 µg·h/mL
